From PubChem BioAssay (NCI)
Several values for one entry are separate records, joined by “and”; a condition that tells them apart may be missing. Equal entries are not always repeated.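 The compound was tested at five concentrations on cells cultured in 96-well plates, with a 48-hour exposure period. GI50: concentration for 50% inhibition of growth. Definition used: TGI = concentration required for complete inhibition of growth.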

Legend:
Assay in all cases: inhibition of tumour cell growth, NCI panel, 48 h; in the data active = GI50 below about 0.43 µM; inactive = the rest
M14 melanoma = test system: M14 melanoma
U251 CNS = test system: U251 CNS
HL-60(TB) leukemia = test system: HL-60(TB) leukemia
DU-145 prostate = test system: DU-145 prostate
K-562 leukemia = test system: K-562 leukemia
HOP-62 NSCLC = test system: HOP-62 NSCLC
T-47D breast = test system: T-47D breast
SNB-75 CNS = test system: SNB-75 CNS
PC-3 prostate = test system: PC-3 prostate
NCI-H522 lung = test system: NCI-H522 lung
HOP-92 NSCLC = test system: HOP-92 NSCLC
RXF 393 renal = test system: RXF 393 renal
A549 NSCLC = test system: A549 NSCLC
NCI-H460 lung = test system: NCI-H460 lung
NCI/ADR-RES ovarian = test system: NCI/ADR-RES ovarian
SK-OV-3 ovarian = test system: SK-OV-3 ovarian
A498 renal = test system: A498 renal
SK-MEL-5 melanoma = test system: SK-MEL-5 melanoma
786-0 renal = test system: 786-0 renal
HCC-2998 colon = test system: HCC-2998 colon
CCRF-CEM leukemia = test system: CCRF-CEM leukemia
SF-268 CNS = test system: SF-268 CNS
HCT-116 colon = test system: HCT-116 colon
MDA-MB-231 breast = test system: MDA-MB-231 breast
OVCAR-4 ovarian = test system: OVCAR-4 ovarian
SN12C renal = test system: SN12C renal
SK-MEL-28 melanoma = test system: SK-MEL-28 melanoma
SF-295 CNS = test system: SF-295 CNS
UO-31 renal = test system: UO-31 renal
SK-MEL-2 melanoma = test system: SK-MEL-2 melanoma
EKVX NSCLC = test system: EKVX NSCLC
KM12 colon = test system: KM12 colon
ACHN renal = test system: ACHN renal
NCI-H226 lung = test system: NCI-H226 lung
COLO 205 colon = test system: COLO 205 colon
SR leukemia = test system: SR leukemia
LOX IMVI melanoma = test system: LOX IMVI melanoma
NCI-H23 lung = test system: NCI-H23 lung
SF-539 CNS = test system: SF-539 CNS
MOLT-4 leukemia = test system: MOLT-4 leukemia
MCF7 breast = test system: MCF7 breast
SW-620 colon = test system: SW-620 colon
MALME-3M melanoma = test system: MALME-3M melanoma
BT-549 breast = test system: BT-549 breast
UACC-62 melanoma = test system: UACC-62 melanoma
CAKI-1 renal = test system: CAKI-1 renal
MDA-MB-435 = test system: MDA-MB-435
HCT-15 colon = test system: HCT-15 colon
HT29 colon = test system: HT29 colon
HS 578T breast = test system: HS 578T breast
MDA-N = test system: MDA-N
SNB-19 CNS = test system: SNB-19 CNS
OVCAR-8 ovarian = test system: OVCAR-8 ovarian
UACC-257 melanoma = test system: UACC-257 melanoma
TK-10 renal = test system: TK-10 renal
IGROV1 ovarian = test system: IGROV1 ovarian
OVCAR-5 ovarian = test system: OVCAR-5 ovarian
RPMI-8226 leukemia = test system: RPMI-8226 leukemia
OVCAR-3 ovarian = test system: OVCAR-3 ovarian

CCOC(=O)CCC(NC(=O)Cc1ccc(Nc2nc3ccccc3nc2-c2ccccc2)cc1)C(=O)OCC (stereo not given)
44.8 µM: TGI (RXF 393 renal)
53.3 µM: TGI (MDA-MB-231 breast)
48.4 µM: TGI (SF-295 CNS)
78.1 µM: TGI (U251 CNS)
74.6 µM: TGI (HS 578T breast)
> 100 µM: TGI (M14 melanoma) | TGI (HL-60(TB) leukemia) | TGI (DU-145 prostate) | TGI (K-562 leukemia) | TGI (HOP-62 NSCLC) | TGI (T-47D breast) | TGI (PC-3 prostate) | TGI (NCI-H522 lung) | TGI (A549 NSCLC) | TGI (NCI-H460 lung) | TGI (NCI/ADR-RES ovarian) | TGI (SK-OV-3 ovarian) | TGI (A498 renal) | TGI (SK-MEL-5 melanoma) | TGI (786-0 renal) | TGI (HCC-2998 colon) | TGI (CCRF-CEM leukemia) | TGI (HCT-116 colon) | TGI (OVCAR-4 ovarian) | TGI (SN12C renal) | TGI (SK-MEL-28 melanoma) | TGI (UO-31 renal) | TGI (EKVX NSCLC) | TGI (KM12 colon) | TGI (ACHN renal) | TGI (NCI-H226 lung) | TGI (COLO 205 colon) | TGI (SR leukemia) | TGI (LOX IMVI melanoma) | TGI (NCI-H23 lung) | TGI (SF-539 CNS) | TGI (MOLT-4 leukemia) | TGI (MCF7 breast) | TGI (SW-620 colon) | TGI (MALME-3M melanoma) | TGI (BT-549 breast) | TGI (UACC-62 melanoma) | TGI (CAKI-1 renal) | TGI (MDA-MB-435) | TGI (HCT-15 colon) | TGI (HT29 colon) | TGI (MDA-N) | TGI (SNB-19 CNS) | TGI (OVCAR-8 ovarian) | TGI (UACC-257 melanoma) | TGI (IGROV1 ovarian) | TGI (OVCAR-5 ovarian)
23.7 µM: TGI (SF-268 CNS)
45.8 µM: TGI (HOP-92 NSCLC)
58.5 µM: TGI (TK-10 renal)
72.7 µM: TGI (SK-MEL-2 melanoma)
38.3 µM: TGI (SNB-75 CNS)

CCCCCC(=O)Nc1n[nH]nc1C(N)=O
> 100 µM: TGI (M14 melanoma) | TGI (U251 CNS) | TGI (HL-60(TB) leukemia) | TGI (DU-145 prostate) | TGI (K-562 leukemia) | TGI (HOP-62 NSCLC) | TGI (T-47D breast) | TGI (SNB-75 CNS) | TGI (PC-3 prostate) | TGI (NCI-H522 lung) | TGI (HOP-92 NSCLC) | TGI (RXF 393 renal) | TGI (A549 NSCLC) | TGI (NCI-H460 lung) | TGI (NCI/ADR-RES ovarian) | TGI (SK-OV-3 ovarian) | TGI (A498 renal) | TGI (SK-MEL-5 melanoma) | TGI (786-0 renal) | TGI (HCC-2998 colon) | TGI (CCRF-CEM leukemia) | TGI (SF-268 CNS) | TGI (HCT-116 colon) | TGI (MDA-MB-231 breast) | TGI (OVCAR-4 ovarian) | TGI (SN12C renal) | TGI (SK-MEL-28 melanoma) | TGI (SF-295 CNS) | TGI (RPMI-8226 leukemia) | TGI (UO-31 renal) | TGI (SK-MEL-2 melanoma) | TGI (EKVX NSCLC) | TGI (KM12 colon) | TGI (ACHN renal) | TGI (NCI-H226 lung) | TGI (COLO 205 colon) | TGI (SR leukemia) | TGI (LOX IMVI melanoma) | TGI (NCI-H23 lung) | TGI (SF-539 CNS) | TGI (MOLT-4 leukemia) | TGI (MCF7 breast) | TGI (SW-620 colon) | TGI (MALME-3M melanoma) | TGI (BT-549 breast) | TGI (UACC-62 melanoma) | TGI (CAKI-1 renal) | TGI (MDA-MB-435) | TGI (HCT-15 colon) | TGI (HT29 colon) | TGI (HS 578T breast) | TGI (MDA-N) | TGI (SNB-19 CNS) | TGI (OVCAR-3 ovarian) | TGI (OVCAR-8 ovarian) | TGI (UACC-257 melanoma) | TGI (TK-10 renal) | TGI (IGROV1 ovarian) | TGI (OVCAR-5 ovarian)

COc1cc2cc(C(=O)N3CC(CCl)c4c3cc(NC(=O)C(C)(C)c3ccccc3[N+](=O)[O-])c3ccccc43)[nH]c2c(OC)c1OC (stereo not given)
33.2 µM: TGI (HCC-2998 colon)
6.86 µM: TGI (LOX IMVI melanoma)
50 µM and 203 µM: TGI (HT29 colon)
9.11 µM and 33.2 µM: TGI (M14 melanoma)
14.5 µM and 74.9 µM: TGI (SF-539 CNS)
5.9 µM and 19.9 µM: TGI (RXF 393 renal)
28.2 µM: TGI (DU-145 prostate)
14.1 µM and 75.6 µM: TGI (UACC-257 melanoma)
35.9 µM and 206 µM: TGI (PC-3 prostate)
0.862 µM: TGI (HOP-62 NSCLC)
> 600 µM: TGI (U251 CNS) | TGI (A549 NSCLC) | TGI (786-0 renal) | TGI (HCT-116 colon) | TGI (RPMI-8226 leukemia) | TGI (SR leukemia)
7.81 µM and 35.1 µM: TGI (SK-MEL-5 melanoma)
30.4 µM and 213 µM: TGI (BT-549 breast)
1.64 µM and 15.5 µM: TGI (NCI-H460 lung)
50 µM and 281 µM: TGI (NCI-H226 lung)
inactive: GI50 (M14 melanoma) 6.24 µM | GI50 (HL-60(TB) leukemia) 37.1 µM | GI50 (K-562 leukemia) 17.9 µM | GI50 (T-47D breast) 61.5 µM | GI50 (SNB-75 CNS) 61.7 µM | GI50 (PC-3 prostate) 19.4 µM | GI50 (NCI-H522 lung) 38.4 µM | GI50 (HOP-92 NSCLC) 222 µM | GI50 (RXF 393 renal) 6.25 µM | GI50 (NCI-H460 lung) 0.825 µM | GI50 (NCI/ADR-RES ovarian) 11.3 µM | GI50 (SK-OV-3 ovarian) 70 µM | GI50 (A498 renal) 59.1 µM | GI50 (SK-MEL-5 melanoma) 11.3 µM | GI50 (CCRF-CEM leukemia) 51.2 µM | GI50 (SF-268 CNS) 19.5 µM | GI50 (MDA-MB-231 breast) > 600 µM | GI50 (OVCAR-4 ovarian) 62.1 µM | GI50 (SN12C renal) 146 µM | GI50 (SK-MEL-28 melanoma) 86.7 µM | GI50 (SF-295 CNS) 19.2 µM | GI50 (UO-31 renal) 26.2 µM | GI50 (SK-MEL-2 melanoma) 110 µM | GI50 (EKVX NSCLC) 127 µM | GI50 (KM12 colon) 48.2 µM | GI50 (ACHN renal) 2.63 µM | GI50 (NCI-H226 lung) 118 µM | GI50 (COLO 205 colon) 204 µM | GI50 (NCI-H23 lung) 8.67 µM | GI50 (SF-539 CNS) 6.55 µM | GI50 (MOLT-4 leukemia) 33.7 µM | GI50 (MCF7 breast) 16.1 µM | GI50 (SW-620 colon) 16.9 µM | GI50 (MALME-3M melanoma) 103 µM | GI50 (BT-549 breast) 26.1 µM | GI50 (UACC-62 melanoma) 25.4 µM | GI50 (CAKI-1 renal) 78.5 µM | GI50 (MDA-MB-435) 91.7 µM | GI50 (HCT-15 colon) 13.2 µM | GI50 (HT29 colon) 14.5 µM | GI50 (HS 578T breast) 270 µM | GI50 (MDA-N) 76.7 µM | GI50 (SNB-19 CNS) 303 µM | GI50 (OVCAR-8 ovarian) 6.58 µM | GI50 (UACC-257 melanoma) 18.9 µM | GI50 (TK-10 renal) 18.3 µM | GI50 (IGROV1 ovarian) 89.6 µM | GI50 (OVCAR-5 ovarian) 119 µM
222 µM: TGI (OVCAR-3 ovarian)
